Test results reported in patent US9938261B2, “Heterocyclic compounds and methods of use thereof” (AMBIT BIOSCIENCES CORPORATION, priority 2011, dated 2018).
Counter-ions that a name gives are not always drawn. Like-named read-outs stand apart in the source and are kept apart here.

Experiments:
FLT3 = biological target: T1, FLT3 (Homo sapiens, UniProt P36888); assay: Competition binding assay, FLT3 Kd
T1 construct: made in house
T1 sequence (P36888 27-993): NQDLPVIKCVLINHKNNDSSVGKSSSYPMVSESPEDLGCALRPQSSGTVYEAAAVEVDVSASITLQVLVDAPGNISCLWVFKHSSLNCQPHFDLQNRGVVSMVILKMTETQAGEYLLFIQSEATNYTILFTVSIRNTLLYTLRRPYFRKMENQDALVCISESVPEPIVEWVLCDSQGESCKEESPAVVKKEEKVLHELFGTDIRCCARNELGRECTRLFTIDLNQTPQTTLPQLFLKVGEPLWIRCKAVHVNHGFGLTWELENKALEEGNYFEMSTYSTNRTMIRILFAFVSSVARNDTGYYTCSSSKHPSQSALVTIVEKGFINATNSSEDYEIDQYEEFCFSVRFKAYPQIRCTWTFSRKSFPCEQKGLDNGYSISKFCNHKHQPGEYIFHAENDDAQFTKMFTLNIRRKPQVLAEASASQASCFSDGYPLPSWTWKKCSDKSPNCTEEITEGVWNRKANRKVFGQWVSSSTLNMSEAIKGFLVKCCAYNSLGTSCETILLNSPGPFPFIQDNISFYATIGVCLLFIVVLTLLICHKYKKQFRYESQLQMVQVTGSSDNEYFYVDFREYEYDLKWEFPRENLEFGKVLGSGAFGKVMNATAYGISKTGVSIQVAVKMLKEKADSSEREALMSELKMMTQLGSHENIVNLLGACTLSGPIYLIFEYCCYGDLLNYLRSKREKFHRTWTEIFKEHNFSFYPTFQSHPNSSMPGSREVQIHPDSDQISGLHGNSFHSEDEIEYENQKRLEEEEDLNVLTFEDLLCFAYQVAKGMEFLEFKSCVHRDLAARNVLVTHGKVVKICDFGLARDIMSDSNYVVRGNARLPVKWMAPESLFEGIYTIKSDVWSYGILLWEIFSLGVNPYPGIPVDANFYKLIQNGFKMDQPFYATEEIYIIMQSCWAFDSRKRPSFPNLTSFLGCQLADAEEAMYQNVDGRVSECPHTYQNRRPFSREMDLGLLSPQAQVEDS
How it was run: (§1)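 Kinases, either T7 phage fusions or HEK-293-expressed and DNA-tagged, competed with test compounds for immobilized biotinylated affinity ligand on streptavidin beads in binding buffer (20% SeaBlock, 0.17×PBS, 0.05% Tween 20, 6 mM DTT). After 1 hour at room temperature, bead-bound kinase was eluted and quantified by qPCR; Kd from eleven-point threefold dilutions.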

KIT = biological target: T2, KIT (Homo sapiens, UniProt P10721); assay: Competition binding assay, KIT Kd
T2 construct: made in house
T2 sequence (P10721 26-976): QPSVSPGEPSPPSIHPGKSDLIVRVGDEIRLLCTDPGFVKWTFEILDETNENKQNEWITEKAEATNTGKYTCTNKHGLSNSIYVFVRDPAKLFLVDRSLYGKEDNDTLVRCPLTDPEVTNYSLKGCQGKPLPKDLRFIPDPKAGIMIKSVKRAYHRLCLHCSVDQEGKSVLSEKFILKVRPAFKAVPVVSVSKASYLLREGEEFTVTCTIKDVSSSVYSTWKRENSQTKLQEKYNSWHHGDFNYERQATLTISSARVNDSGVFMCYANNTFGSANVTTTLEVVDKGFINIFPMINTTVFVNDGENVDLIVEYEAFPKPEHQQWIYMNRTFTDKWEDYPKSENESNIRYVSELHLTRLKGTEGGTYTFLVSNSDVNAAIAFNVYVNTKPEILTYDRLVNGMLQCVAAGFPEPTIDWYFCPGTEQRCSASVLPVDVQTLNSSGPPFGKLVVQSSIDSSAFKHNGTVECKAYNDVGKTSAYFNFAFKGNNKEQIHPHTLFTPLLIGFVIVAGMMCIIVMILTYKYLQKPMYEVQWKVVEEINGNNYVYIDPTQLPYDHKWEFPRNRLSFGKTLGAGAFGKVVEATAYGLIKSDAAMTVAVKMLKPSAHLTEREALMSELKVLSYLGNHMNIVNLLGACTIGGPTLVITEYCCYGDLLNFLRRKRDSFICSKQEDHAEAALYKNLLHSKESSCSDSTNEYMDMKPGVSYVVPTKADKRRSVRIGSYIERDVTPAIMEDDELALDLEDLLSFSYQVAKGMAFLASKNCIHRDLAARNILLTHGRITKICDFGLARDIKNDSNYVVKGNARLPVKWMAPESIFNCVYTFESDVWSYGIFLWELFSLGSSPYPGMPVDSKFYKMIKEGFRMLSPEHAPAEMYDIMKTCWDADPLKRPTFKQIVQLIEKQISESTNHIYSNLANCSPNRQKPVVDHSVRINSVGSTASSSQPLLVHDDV
How it was run: as §1

PDGFRβ = biological target: T3, PDGFRβ (Homo sapiens, UniProt P09619); assay: Competition binding assay, PDGFRβ Kd
T3 construct: made in house
T3 sequence (P09619 33-1106): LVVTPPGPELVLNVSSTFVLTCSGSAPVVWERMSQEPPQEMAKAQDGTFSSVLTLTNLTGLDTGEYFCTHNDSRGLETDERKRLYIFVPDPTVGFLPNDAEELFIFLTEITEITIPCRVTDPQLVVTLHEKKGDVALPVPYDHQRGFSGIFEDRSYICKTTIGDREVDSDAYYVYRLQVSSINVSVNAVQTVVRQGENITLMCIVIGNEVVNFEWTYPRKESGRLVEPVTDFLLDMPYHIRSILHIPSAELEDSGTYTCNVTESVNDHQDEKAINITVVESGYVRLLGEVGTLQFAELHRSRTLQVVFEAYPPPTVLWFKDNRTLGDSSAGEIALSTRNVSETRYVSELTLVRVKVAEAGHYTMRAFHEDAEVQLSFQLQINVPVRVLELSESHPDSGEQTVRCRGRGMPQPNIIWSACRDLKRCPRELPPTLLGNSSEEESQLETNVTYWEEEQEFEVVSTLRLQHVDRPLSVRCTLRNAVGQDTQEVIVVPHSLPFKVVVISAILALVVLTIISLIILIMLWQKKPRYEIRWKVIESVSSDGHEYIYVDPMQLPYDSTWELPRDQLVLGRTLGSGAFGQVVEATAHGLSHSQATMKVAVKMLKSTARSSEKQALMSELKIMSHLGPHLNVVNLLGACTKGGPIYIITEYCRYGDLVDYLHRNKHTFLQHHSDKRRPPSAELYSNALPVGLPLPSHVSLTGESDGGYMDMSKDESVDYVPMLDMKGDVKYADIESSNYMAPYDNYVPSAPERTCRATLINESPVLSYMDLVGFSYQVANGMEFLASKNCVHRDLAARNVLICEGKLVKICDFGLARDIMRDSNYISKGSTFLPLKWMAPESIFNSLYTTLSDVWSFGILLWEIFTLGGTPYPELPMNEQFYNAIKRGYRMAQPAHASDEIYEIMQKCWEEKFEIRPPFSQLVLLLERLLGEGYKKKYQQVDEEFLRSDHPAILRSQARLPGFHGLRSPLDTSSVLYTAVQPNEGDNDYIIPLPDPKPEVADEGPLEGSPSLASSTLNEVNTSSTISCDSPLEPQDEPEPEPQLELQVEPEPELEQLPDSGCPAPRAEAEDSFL
How it was run: as §1

M-NFS-60 cells = assay: M-NFS-60 cell proliferation assay (Alamar Blue); type: cell-based, mouse; details: Mus musculus, read-out: CSF1R M-NFS-60 CTB:IC50
How it was run: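 Alamar Blue reduction (3 h; 560/590 nm) measured viability after 72 h, 37 °C treatment with nine half-log compound concentrations at 0.5% DMSO. Cells: M-CSF-dependent (20 ng/mL) murine M-NFS-60 in RPMI plus 10% FBS. IC50s, averaged from duplicates, reflect half-maximal inhibition of proliferation relative to control.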

CSF1R [1] = biological target: T4, CSF1R (Homo sapiens, UniProt P07333); assay: Competition binding assay, CSF1R Kd; design: made in house
T4 sequence (P07333 20-972): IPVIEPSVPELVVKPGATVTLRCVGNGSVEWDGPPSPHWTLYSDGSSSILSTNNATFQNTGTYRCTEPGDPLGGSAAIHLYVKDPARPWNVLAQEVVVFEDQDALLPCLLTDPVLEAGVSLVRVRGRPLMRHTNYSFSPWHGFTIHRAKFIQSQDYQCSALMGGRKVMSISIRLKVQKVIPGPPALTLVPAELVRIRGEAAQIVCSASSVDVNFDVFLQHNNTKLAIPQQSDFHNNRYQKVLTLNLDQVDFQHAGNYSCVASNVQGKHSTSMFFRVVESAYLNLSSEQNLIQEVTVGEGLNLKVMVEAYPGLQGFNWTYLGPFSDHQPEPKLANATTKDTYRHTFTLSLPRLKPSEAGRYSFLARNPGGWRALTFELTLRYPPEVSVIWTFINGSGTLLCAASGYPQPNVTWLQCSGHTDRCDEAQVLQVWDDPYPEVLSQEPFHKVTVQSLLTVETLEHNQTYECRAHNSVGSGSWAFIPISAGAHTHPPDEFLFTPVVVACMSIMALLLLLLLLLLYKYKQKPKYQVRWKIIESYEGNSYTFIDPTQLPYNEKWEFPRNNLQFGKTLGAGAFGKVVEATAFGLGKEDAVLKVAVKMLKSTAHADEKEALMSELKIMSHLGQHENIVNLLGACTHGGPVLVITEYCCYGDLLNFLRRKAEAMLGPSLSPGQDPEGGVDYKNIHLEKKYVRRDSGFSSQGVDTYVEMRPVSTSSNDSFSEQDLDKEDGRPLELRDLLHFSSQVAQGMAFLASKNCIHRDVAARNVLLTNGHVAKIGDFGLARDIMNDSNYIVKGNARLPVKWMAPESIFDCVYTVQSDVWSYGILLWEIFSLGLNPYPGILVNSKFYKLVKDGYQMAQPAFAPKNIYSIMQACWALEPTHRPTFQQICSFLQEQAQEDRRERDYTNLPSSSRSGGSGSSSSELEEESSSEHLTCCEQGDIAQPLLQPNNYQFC
How it was run: as §1

CSF1R [2] = biological target: T4, CSF1R; assay: HEK293 CSF1R phosphorylation MSD assay; type: cell-based; design: expressed in transfected cells; host or cells: HEK293; details: read-out: HEK293 pCSF1R M-CSF MSD:IC50
How it was run: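 Ligand-induced CSF1R autophosphorylation was measured by MSD sandwich assay: CSF1R-FKBP from lysates captured via FK506, anti-phosphotyrosine readout. Cells were exposed to compound for 2 h (9-point, half-log, 0.5% DMSO) before 5 min 50 ng/mL M-CSF. Reported IC50 is the mean of duplicate-plate IC50s relative to DMSO control.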

[3] = 72 hours incubation, M-CSF 20 ng/mL
[4] = 2 h compound, human M-CSF 50 ng/mL for 5 min

| Compound | Kd (FLT3) [nM] | Kd (KIT) [nM] | Kd (PDGFRβ) [nM] | IC50 (M-NFS-60 cells; [3]) [nM] | Kd (CSF1R [1]) [nM] | IC50 (CSF1R [2]; [4]) [nM] | Kd (FLT3; competition binding) [nM] | Kd (KIT; competition binding) [nM] | Kd (PDGFRβ; competition binding) [nM] | IC50 (M-NFS-60 cells; M-NFS-60 cell proliferation) [nM] | Kd (CSF1R [1]; competition binding) [nM] | IC50 (CSF1R [2]; HEK293 cells, M-CSF stimulated CSF1R phosphorylation, MSD) [nM] |
| --- | --- | --- | --- | --- | --- | --- | --- | --- | --- | --- | --- | --- |
| COc1ccc2c(c1)ncn2Cc1ccc2nc(N[C@@H]3CCCC[C@H]3O)sc2c1 [Example 68, (1R,2R)-2-((6-((5-methoxy-1H-benzo[d]imidazol-1-yl)methyl)benzo[d]thiazol-2-yl)amino)cyclohexanol] | 1000 to 5000 | 100 to 500 | 50 to 500 | ≤ 50 | 5 to 20 | ≤ 50 | – | – | – | – | – | – |
| O[C@@H]1Cc2ccccc2[C@H]1Nc1nc2ccc(Cn3cnc4cc(F)cnc43)cc2s1 [Example 69, (1R,2R)-1-((6-((6-fluoro-3H-imidazo[4,5-b]pyridin-3-yl)methyl)benzo[d]thiazol-2-yl)amino)-2,3-dihydro-1H-inden-2-ol] | 1000 to 5000 | 100 to 500 | ≤ 50 | 50 to 400 | ≤ 5 | 50 to 200 | – | – | – | – | – | – |
| O[C@@H]1CCCC[C@H]1Nc1nc2ccc(Cn3cnc4cc(F)cnc43)cc2s1 [Example 70, (1R,2R)-2-((6-((6-fluoro-3H-imidazo[4,5-b]pyridin-3-yl)methyl)benzo[d]thiazol-2-yl)amino)cyclohexanol] | 1000 to 5000 | ≤ 100 | 50 to 500 | 50 to 400 | ≤ 5 | ≤ 50 | – | – | – | – | – | – |
| O[C@@H]1CCCC[C@H]1Nc1nc2ccc(Cn3cnc4ccncc43)cc2s1 [Example 71, (1R,2R)-2-((6-((3H-imidazo[4,5-c]pyridin-3-yl)methyl)benzo[d]thiazol-2-yl)amino)cyclohexanol] | > 5000 | > 2000 | 500 to 2000 | 400 to 1500 | 5 to 20 | 200 to 500 | – | – | – | – | – | – |
| O[C@@H]1CCCC[C@H]1Nc1nc2ccc(Cn3cnc4cnccc43)cc2s1 [Example 72, (1R,2R)-2-((6-((1H-imidazo[4,5-c]pyridin-1-yl)methyl)benzo[d]thiazol-2-yl)amino)cyclohexanol] | > 5000 | > 2000 | 500 to 2000 | 400 to 1500 | 5 to 20 | 50 to 200 | – | – | – | – | – | – |
| O[C@@H]1CCCC[C@H]1Nc1nc2ccc(Cn3cnc4ccc(Br)nc43)cc2s1 [Example 78, (1R,2R)-2-((6-((5-bromo-3H-imidazo[4,5-b]pyridin-3-yl)methyl)benzo[d]thiazol-2-yl)amino)cyclohexanol] | ≤ 200 | ≤ 100 | ≤ 50 | ≤ 50 | 5 to 20 | ≤ 50 | – | – | – | – | – | – |
| COC(=O)c1cnc2c(c1)ncn2Cc1ccc2nc(N[C@@H]3CCCC[C@H]3O)sc2c1 [Example 79, methyl 3-((2-(((1R,2R)-2-hydroxycyclohexyl)amino)benzo[d]thiazol-6-yl)methyl)-3H-imidazo[4,5-b]pyridine-6-carboxylate] | 200 to 1000 | ≤ 100 | ≤ 50 | ≤ 50 | 5 to 20 | ≤ 50 | – | – | – | – | – | – |
| CC(=O)c1ccc2ncn(Cc3ccc4nc(N[C@@H]5CCCC[C@H]5O)sc4c3)c2n1 [Example 88, 1-(3-((2-(((1R,2R)-2-hydroxycyclohexyl)amino)benzo[d]thiazol-6-yl)methyl)-3H-imidazo[4,5-b]pyridin-5-yl)ethanone] | 200 to 1000 | ≤ 100 | 50 to 500 | ≤ 50 | ≤ 5 | 50 to 200 | – | – | – | – | – | – |
| CNC(=O)c1cnc2c(c1)ncn2Cc1ccc2nc(N[C@@H]3CCCC[C@H]3O)sc2c1 [Example 89, 3-((2-(((1R,2R)-2-hydroxycyclohexyl)amino)benzo[d]thiazol-6-yl)methyl)-N-methyl-3H-imidazo[4,5-b]pyridine-6-carboxamide] | 1000 to 5000 | ≤ 100 | ≤ 50 | 50 to 400 | 5 to 20 | 50 to 200 | – | – | – | – | – | – |
| N=C(NO)c1cnc2c(c1)ncn2Cc1ccc2nc(N[C@@H]3CCCC[C@H]3O)sc2c1 [Example 90, N-hydroxy-3-((2-(((1R,2R)-2-hydroxycyclohexyl)amino)benzo[d]thiazol-6-yl)methyl)-3H-imidazo[4,5-b]pyridine-6-carboximidamide] | 1000 to 5000 | 100 to 500 | 50 to 500 | 50 to 400 | 5 to 20 | 50 to 200 | – | – | – | – | – | – |
| NCc1cnc2c(c1)ncn2Cc1ccc2nc(N[C@@H]3CCCC[C@H]3O)sc2c1 [Example 91, (1R,2R)-2-((6-((6-(aminomethyl)-3H-imidazo[4,5-b]pyridin-3-yl)methyl)benzo[d]thiazol-2-yl)amino)cyclohexanol acetate] | ≤ 200 | 100 to 500 | 50 to 500 | 50 to 400 | > 50 | > 500 | – | – | – | – | – | – |
| CN(C)C(=O)c1cnc2c(c1)ncn2Cc1ccc2nc(N[C@@H]3CCCC[C@H]3O)sc2c1 [Example 92, 3-((2-(((1R,2R)-2-hydroxycyclohexyl)amino)benzo[d]thiazol-6-yl)methyl)-N,N-dimethyl-3H-imidazo[4,5-b]pyridine-6-carboxamide] | 1000 to 5000 | ≤ 100 | ≤ 50 | 50 to 400 | 5 to 20 | 50 to 200 | – | – | – | – | – | – |
| O[C@@H]1CCCC[C@H]1Nc1nc2ccc(Cn3cnc4cc(-c5nn[nH]n5)cnc43)cc2s1 [Example 93, (1R,2R)-2-((6-((6-(2H-tetrazol-5-yl)-3H-imidazo[4,5-b]pyridin-3-yl)methyl)benzo[d]thiazol-2-yl)amino)cyclohexanol] | 200 to 1000 | ≤ 100 | ≤ 50 | > 1500 | 5 to 20 | > 500 | – | – | – | – | – | – |
| Cn1nnc(-c2cnc3c(c2)ncn3Cc2ccc3nc(N[C@@H]4CCCC[C@H]4O)sc3c2)n1 [Example 94, (1R,2R)-2-((6-((6-(2-methyl-2H-tetrazol-5-yl)-3H-imidazo[4,5-b]pyridin-3-yl)methyl)benzo[d]thiazol-2-yl)amino)cyclohexanol] | 200 to 1000 | 100 to 500 | 50 to 500 | ≤ 50 | 5 to 20 | ≤ 50 | – | – | – | – | – | – |
| O[C@@H]1Cc2ccccc2[C@H]1Nc1nc2ccc(Cn3cnc4cncnc43)cc2s1 [Example 95, (1R,2R)-1-((6-((9H-purin-9-yl)methyl)benzo[d]thiazol-2-yl)amino)-2,3-dihydro-1H-inden-2-ol] | > 5000 | 500 to 2000 | ≤ 50 | 50 to 400 | ≤ 5 | 50 to 200 | – | – | – | – | – | – |
| Cn1cc(-c2nccn(Cc3ccc4nc(N[C@@H]5CCCC[C@H]5O)sc4c3)c2=O)cn1 [Example 103, 1-((2-(((1R,2R)-2-hydroxycyclohexyl)amino)benzo[d]thiazol-6-yl)methyl)-3-(1-methyl-1H-pyrazol-4-yl)pyrazin-2(1H)-one] | > 5000 | > 2000 | 50 to 500 | 50 to 400 | 5 to 20 | 50 to 200 | – | – | – | – | – | – |
| CN(C)CC(=O)c1cnc2c(c1)ncn2Cc1ccc2nc(N[C@@H]3CCCC[C@H]3O)sc2c1 [Example 116, 2-(dimethylamino)-1-(3-((2-(((1R,2R)-2-hydroxycyclohexyl)amino)benzo[d]thiazol-6-yl)methyl)-3H-imidazo[4,5-b]pyridine-6-yl)ethanone acetate salt] | – | – | – | – | – | – | 200 to 1000 | 100 to 500 | 50 to 500 | > 1500 | 5 to 20 | 50 to 200 |
